The values that follow come from patent publication US20220175818A1, “Inhibition of Monoamine Oxidase Subtype A (MAOA) Mitigates Cardiovascular Calcification” (The Brigham and Women's Hospital, Inc., priority 2019, published 2022).

This test relates to VICs. Description: Alizarin red calcification assay of VICs grown in osteogenic media with MAOA inhibitors. Type of test: cell-based, human. The settings on record: VICs grown in OM, 21 days, inhibitor 10 μM, PBS control, n=3, FIG. 7E.

Experimental: Representative images, n=3 donors.
Osteogenic, chondrogenic, and adipogenic differentiation assays were conducted for samples of protein, RNA, and media collected at 0, 1, 2, and 3 weeks after changing media from growth media to specialized media. Alizarin Red. alizarin red (AR) 2% (Thermo Fisher Scientific), Alcian blue (AB) 1%, and oil red O (ORO) (Abcam) were used for osteogenic, chondrogenic, and adipogenic assays respectively. Cells plated in 48 or 96 well plates were washed with PBS and fixed for 15 minutes at room temperature with 10% formalin for AR and AB and 4% PFA for ORO. After washing with Milli-Q water, stains were added. […] The incubation times were 20 minutes (AR), 1 hour (AB), and 15 minutes in room temperature (ORO). Washes with Milli-Q water followed for the AR (3×) and AB (4×) stains. […] Pictures were taken using an iPhone7 (Apple) and the amount of dye released was quantified by spectrophotometry at 550 nm.

For `O=C(NCCN1CCOCC1)c1ccc(Cl)cc1` [moclobemide, Moclobemide], the “calcification (Alizarin red staining)” value is “reduction of calcification”.
Then `Cc1ccc2c(c1)c1c3n2CCNC3CCC1` (centres unmarked) [pirindole], with “reduction of calcification”.
